# Measured values: patent publication EP1733731A1, “New uses of Glycerol derivatives in particular in cosmetics” (AGRO INDUSTRIE RECHERCHES ET DEVELOPPEMENTS (A.R.D.), priority 2005, dated 2006)
# Target: T1, MMP-1 (Homo sapiens, UniProt P03956)
# T1 construct: La proMMP-1 recombinante (75 ng/mL) est activée par l'APMA
# T1 sequence (P03956 100-469): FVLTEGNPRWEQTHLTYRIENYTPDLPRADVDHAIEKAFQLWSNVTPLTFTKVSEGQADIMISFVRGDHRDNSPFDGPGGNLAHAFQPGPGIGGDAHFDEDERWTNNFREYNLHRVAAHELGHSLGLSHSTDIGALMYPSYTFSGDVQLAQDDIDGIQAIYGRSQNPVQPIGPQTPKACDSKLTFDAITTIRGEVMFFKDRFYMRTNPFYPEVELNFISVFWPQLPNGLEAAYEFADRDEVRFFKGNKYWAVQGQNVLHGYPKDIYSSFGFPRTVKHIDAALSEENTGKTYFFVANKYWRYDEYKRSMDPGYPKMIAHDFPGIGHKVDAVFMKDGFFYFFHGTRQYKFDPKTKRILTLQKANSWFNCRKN
# Assay: MMP-1 activity on fluorescent synthetic substrate (FRET)
# Assay type: biochemical
# Text: La mesure de l'activité enzymatique des MMPs est basée sur le principe du transfert d'énergie par résonance, RET ou transfert d'énergie de fluorescence par résonance, FRET. Le substrat est constitué d'un oligopeptide comportant un groupement fluorescent (F), donneur d'énergie et un groupement éteignant (Q, pour quenching), accepteur d'énergie. Après hydrolyse, le groupement éteignant est libéré, permettant de mesurer l'augmentation de fluorescence.
# De nombreux couples fluorescent/éteignant ont été développés pour la mesure de l'activité enzymatique des MMPs comme le couple 7-méthoxycoumarine-4-acétyl (Mca)/dinitrophenyl-diaminopropionyl (Dnp).
# Après activation, la MMP-1 est pré-incubée à +20°C pendant 10 minutes en absence ou en présence d'effecteurs dans un tampon Tris-HCl 50 mM, NaCl 150 mM, CaCl2 5 mM pH 7,5 en plaque 96 puits noire dont les sites de liaisons non-spécifiques ont été bloqués à l'aide d'une solution de SAB à 0,1% (p/v) dans le même tampon. La réaction est initiée par addition de 10 µL de substrat à la concentration finale de 2 µM dans un volume réactionnel final de 200 µL. Les variations de fluorescence (λ excitation : 360 nm, λ émission : 465 nm) au cours du temps sont suivies à l'aide d'un spectrofluorimètre lecteur de plaque HTS 7000+ à +20°C. La courbe représentant la fluorescence (en RFU) en fonction du temps (en minutes) est tracée.
# Les intensités de fluorescence obtenues permettent d'estimer là vitesse initiale de l'enzyme en absence d'effecteur (V0) et en présence d'inhibiteur (Vi). […]
# La proMMP-1 recombinante (75 ng/mL) est activée par l'APMA (Acide Phényl Mercurique Acétate). […] Le clivage de ce substrat est estimé par mesure de la fluorescence libérée (λexc = 360 nm; λem = 465 nm) à l'aide d'un spectrofluorimètre lecteur de plaques de type Perkin Elmer HTS 7000 Plus. Les intensités de fluorescence obtenues permettent d'estimer la vitesse initiale de l'enzyme en l'absence d'effecteur (Vo) et en présence d'inhibiteur (Vi). […]
smiles,measurement,setting,value
"CCCCC/C=C\C/C=C\CCCCCCCCOC[C@H](CO[C@@H]1O[C@H](COC(=O)CCCCCCCCCCCCCCC)[C@H](O)[C@H](O)[C@H]1O)OCCCCCCCC/C=C\C/C=C\CCCCC [ED23-11, 1,2-di-O-linoléyl-3-O-[6'-O-palmitoyl-β-D-galactopyranosyl]-sn-glycérol]",inhibition at 25 µg/mL,"25 µg/mL, read-out: Inhibition de MMP-1 (%)",42 ± 0.87%
same,Action sur l'activité de la MMP-1 (Vi/V0) à isoconcentration,at isoconcentration,168
same,Augmentation d'activité,"inhibition of type I collagenase, increase from one fractionation step to the next","2,72"
